Laboratory results from US10760065B2, “Tuning microbial populations with programmable nucleases” (priority 2013, dated 2020).
Converted amounts (≈) assume the structure as drawn.

Legend:
EMG2 pSHV-18 = assay: MIC determination by broth microdilution; format: cell-based, E. coli; details: strain EMG2 pSHV-18, LB broth; for MIC: Escherichia coli, read-out: Minimum Inhibitory Concentration (MIC)
Method: (§1) MICs were determined by broth microdilution using LB broth according to the CLSI guidelines (Clinical and Laboratory Standards Institute. Methods for Dilution Antimicrobial Susceptibility Tests for Bacteria That Grow Aerobically; Approved Standard—Seventh Edition. 64 (2006)).

EMG2 gyrAD87G = assay: MIC determination by broth microdilution; format: cell-based, E. coli; details: strain EMG2 gyrAD87G, LB broth; for MIC: Escherichia coli, read-out: Minimum Inhibitory Concentration (MIC)
Method: as §1

EMG2 pNDM-1 = assay: MIC determination by broth microdilution; format: cell-based, E. coli; details: strain EMG2 pNDM-1, LB broth; for MIC: Escherichia coli, read-out: Minimum Inhibitory Concentration (MIC)
Method: as §1

EMG2 Wild-Type = assay: microbe, parasite or virus in culture; format: cell-based, E. coli; details: strain EMG2 Wild-Type, LB broth; for MIC: Escherichia coli, read-out: Minimum Inhibitory Concentration (MIC)
Method: as §1

EHEC = assay: Galleria mellonella infection model, survival; format: in vivo; details: ΦRGNeae MOI ~30; chloramphenicol or carbenicillin 32 mg/kg; Log-rank p<0.05
Method: Galleria mellonella larvae were injected with either PBS (uninfected) or approximately 4×10^5 colony forming units (CFU) of EHEC. […] Survival curves represent an aggregate of four independent experiments, each with 20 worms per treatment group (n=80). […] G. mellonella larvae (n=40) were injected with PBS or approximately 3×10^5 colony forming units (CFU) of EHEC. Larvae were subsequently treated with PBS, ΦRGNeae at MOI ˜30, chloramphenicol, or carbenicillin. The antibiotics were both applied at a concentration of 32 mg/kg, corresponding to the CLSI resistance breakpoints for Enterobacteriaceae (32 μg/mL).
Larvae of the model organism Galleria mellonella (Desbois, A. P. & Coote, P. J. Adv. Appl. Microbiol. 78, 25-53 (2012)) were purchased from Vanderhorst Wholesale, Inc. (St. Marys, Ohio, USA) and received in the final larval instar for survival assays. Larvae were removed from food source, allowed to acclimate for at least 24 h at room temperature in the dark, and used within 4 days of receipt. […] Larvae were incubated at 37° C. and survival was monitored at 12 hour intervals for 72 hours, with death indicated by lack of movement and unresponsiveness to touch (Desbois, A. P. & Coote, P. J. Adv. Appl. Microbiol. 78, 25-53 (2012)). Kaplan-Meier survival curves were generated on the data pooled from four independent experiments and analyzed with the log-rank test using GraphPad Prism.

EHEC strain = assay: Antibiotic susceptibility of the EHEC strain; format: cell-based, E. coli

Molecule CC1(C)S[C@@H]2[C@H](NC(=O)[C@H](N)c3ccccc3)C(=O)N2[C@H]1C(=O)O [AMP, ampicillin] has an MIC (EMG2 pSHV-18) of 64 µg/mL (≈ 183 µM), an MIC (EMG2 gyrAD87G) of 4 µg/mL (≈ 11.4 µM) and an MIC (EMG2 pNDM-1) greater than 64 µg/mL. It also gave an MIC (EMG2 Wild-Type) of 2 µg/mL (≈ 5.72 µM).

With CC(C)(O/N=C(\C(=O)N[C@@H]1C(=O)N2C(C(=O)[O-])=C(C[n+]3ccccc3)CS[C@H]12)c1csc(N)n1)C(=O)O [CAZ, ceftazidime] the MIC (EMG2 pSHV-18) was 1 µg/mL (≈ 1.83 µM), the MIC (EMG2 pNDM-1) was greater than 64 µg/mL and the MIC (EMG2 Wild-Type) was 0.25 µg/mL (≈ 0.457 µM).

Molecule CO/N=C(\C(=O)N[C@@H]1C(=O)N2C(C(=O)O)=C(COC(C)=O)CS[C@H]12)c1csc(N)n1 [CTX, cefotaxime] has an MIC (EMG2 pSHV-18) of 0.25 µg/mL (≈ 0.549 µM), an MIC (EMG2 gyrAD87G) of no more than 0.0625 µg/mL and an MIC (EMG2 pNDM-1) greater than 64 µg/mL. For the same molecule, the MIC (EMG2 Wild-Type) was no more than 0.0625 µg/mL.

For C[C@@H](O)[C@H]1C(=O)N2C(C(=O)O)=C(SCCN=CN)C[C@H]12 [IPM, imipenem], the MIC (EMG2 pNDM-1) was 32 µg/mL (≈ 107 µM) and the MIC (EMG2 Wild-Type) was 0.25 µg/mL (≈ 0.835 µM).

Work on CC1COc2c(N3CCN(C)CC3)c(F)cc3c(=O)c(C(=O)O)cn1c23 (stereo not shown) [OFX, ofloxacin] yielded an MIC (EMG2 gyrAD87G) of 0.5 µg/mL (≈ 1.38 µM) and an MIC (EMG2 Wild-Type) of 0.125 µg/mL (≈ 0.346 µM).

CC1(C)S[C@@H]2[C@H](NC(=O)C(C(=O)O)c3ccccc3)C(=O)N2[C@H]1C(=O)O (stereo partly shown) [carbenicillin] was tested, and the “survival of EHEC-infected larvae, comparison with antibiotics” value (EHEC) was “superior to ΦRGNeae treatment” and the “susceptibility of EHEC strain” value (EHEC strain) was “susceptible”.

With O=C(N[C@H](CO)[C@H](O)c1ccc([N+](=O)[O-])cc1)C(Cl)Cl [chloramphenicol] the “susceptibility of EHEC strain” value (EHEC strain) was “resistant”.

gentamicin was tested, and the “Minimum Inhibitory Concentration (MIC)” value (EMG2 pSHV-18) was greater than 64 µg/mL, the “Minimum Inhibitory Concentration (MIC)” value (EMG2 gyrAD87G) was 4 µg/mL and the “Minimum Inhibitory Concentration (MIC)” value (EMG2 pNDM-1) was greater than 64 µg/mL. The “Minimum Inhibitory Concentration (MIC)” value (EMG2 Wild-Type) was 4 µg/mL.
